Results from ChEMBL document CHEMBL6078661, “Alkaloids from Mackinlaya species and synthetic mackinazolinone derivatives: An overview” (Bioorg Med Chem, 2025).
One block for each compound: values may come before it.

Experiments:
Naegleria fowleri = experiment: Antiparasitic activity against Naegleria fowleri NF69 (ATCC 30215) assessed as parasitic growth inhibition at 10 uM incubated for 48 hrs by CellTiter-Glo based BioTek microplate reader analysis relative to control; type: functional; set-up: scale not given: the % may be the effect or the level left
Acetylcholinesterase = Acetylcholinesterase (Homo sapiens, UniProt P22303); experiment: Competitive inhibition of AChE (unknown origin)
Sequence of Acetylcholinesterase (P22303 whole entry): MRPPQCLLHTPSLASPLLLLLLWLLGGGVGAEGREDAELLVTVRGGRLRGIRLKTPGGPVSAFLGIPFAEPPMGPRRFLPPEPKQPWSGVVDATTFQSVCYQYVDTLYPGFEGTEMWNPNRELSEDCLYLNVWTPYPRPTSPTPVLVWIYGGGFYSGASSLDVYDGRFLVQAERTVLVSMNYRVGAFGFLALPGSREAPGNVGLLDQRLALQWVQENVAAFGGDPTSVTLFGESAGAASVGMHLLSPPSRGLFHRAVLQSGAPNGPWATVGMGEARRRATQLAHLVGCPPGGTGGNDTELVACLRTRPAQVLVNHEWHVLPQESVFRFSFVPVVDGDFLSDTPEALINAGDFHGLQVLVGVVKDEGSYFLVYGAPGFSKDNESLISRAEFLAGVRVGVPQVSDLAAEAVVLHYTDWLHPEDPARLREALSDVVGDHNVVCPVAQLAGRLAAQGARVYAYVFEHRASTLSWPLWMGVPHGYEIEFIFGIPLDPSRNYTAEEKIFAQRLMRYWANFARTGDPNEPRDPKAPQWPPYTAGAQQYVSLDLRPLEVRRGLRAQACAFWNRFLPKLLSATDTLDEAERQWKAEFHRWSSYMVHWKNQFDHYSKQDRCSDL

Staphylococcus aureus = experiment: Antibacterial activity against Staphylococcus aureus assessed as diameter of inhibition zone; type: functional
Bacillus cereus = experiment: Antibacterial activity against Bacillus cereus assessed as diameter of inhibition zone; type: functional
Pseudomonas aeruginosa = experiment: Antibacterial activity against Pseudomonas aeruginosa assessed as diameter of inhibition zone; type: functional
Escherichia coli = experiment: Antibacterial activity against Escherichia coli assessed as diameter of inhibition zone; type: functional
MCF7 = experiment: Cytotoxicity against human MCF7 cells assessed as reduction in cell viability; type: functional, cell-based
HeLa [1] = experiment: Cytotoxicity against human HeLa cells assessed as reduction in cell viability; type: functional, cell-based
A549 = experiment: Cytotoxicity against human A549 cells assessed as reduction in cell viability; type: functional
HeLa [2] = experiment: Antiproliferative activity against human HeLa cells assessed as inhibition of cell proliferation; type: functional, cell-based

SMILES: CN1CCC[C@@H]2c3nc4ccc(Cl)cc4c(=O)n3CC[C@H]21
Activity (Naegleria fowleri): 98.1%

SMILES: CN1CCC[C@H]2c3nc4ccc(C#N)cc4c(=O)n3CC[C@H]21
Activity (Naegleria fowleri): 98.2%

SMILES: O=c1c2nc(-c3ccc(C(F)(F)F)cc3)sc2nc2n1CCCC2
IC50 (Acetylcholinesterase): 1670 nM

SMILES: CN1CCC[C@@H]2c3nc4cc(C(F)(F)F)ccc4c(=O)n3CC[C@H]21
Activity (Naegleria fowleri): 96.8%

SMILES: O=C1c2ccccc2NC2=C(/C=N/c3ccccc3O)CCCN12
diameter of the inhibition zone (DIZ) (Staphylococcus aureus): 18 mm
diameter of the inhibition zone (DIZ) (Bacillus cereus): 18 mm
diameter of the inhibition zone (DIZ) (Pseudomonas aeruginosa): 18 mm
diameter of the inhibition zone (DIZ) (Escherichia coli): 6 mm

SMILES: O=c1c2nc(-c3cc(Cl)cc(Cl)c3)oc2nc2n1CCCC2
IC50 (MCF7): 2290 nM
IC50 (HeLa [1]): 3.06 µM
Activity (A549): 0.75 µM

IC50 (HeLa [2]): 8.46 µM
SMILES: COc1ccc(/C=C2\CCCn3c2nc2oc(-c4ccc(F)cc4)cc2c3=O)cc1OC
